Results taken from patent US6407239B1, “Aromatic esters of camptothecins and methods to treat cancers” (priority 1999, dated 2002).

Experiments:
[1] = system: 14 human cell lines; assay: compounds tested against 14 human cell lines (in vitro); format: cell-based
From the text: What is interesting from these in vitro data is that the activity of these esters is related to the substituents on their side aromatic rings. […] Thus, the difference in activity among the esters of the present invention are due to the different substituents on their side aromatic ring.

[2] = cited from earlier work
[3] = cited from earlier work; remark: listed apart in the source
[4] = cited from earlier work; remark: listed apart in the source
[5] = animal models; cited from earlier work
[6] = system: mouse leukemia L 1210; details: initial test; cited from earlier work
[7] = patients, early trials; cited from earlier work

Molecule: 20-O-phenyl-9-nitrocamptothecin [CZ176]
- activity (response of 14 human cell lines) [1]: do not show any activity

Molecule: CC[C@@]1(O)C(=O)OCc2c1cc1n(c2=O)Cc2cc3c([N+](=O)[O-])cccc3nc2-1 [9-nitrocamptothecin]
- present as lactone form in mice plasma [2]: about 50%
- found as the lactone form in human plasma [3]: 5%

Molecule: CC[C@@](O)(C(=O)[O-])c1cc2n(c(=O)c1CO)Cc1cc3ccccc3nc1-2.[Na+] [CPT sodium carboxylate]
- solubility in water [4]: water-soluble
- potency relative to the parent camptothecin [5]: 10-20%

Molecule: CC[C@@]1(OC(=O)c2ccccc2)C(=O)OCc2c1cc1n(c2=O)Cc2cc3ccccc3nc2-1 [CZ222]
- activity (response of 14 human cell lines) [1]: do not show any activity

Molecule: CC[C@@]1(O)C(=O)OCc2c1cc1n(c2=O)Cc2cc3ccccc3nc2-1 [Camptothecin]
- activity against mouse leukemia L 1210 [6]: showed good activity
- anticancer activity in human clinical trials [7]: anticancer activity was not found
- toxicity in human clinical trials [7]: severe toxicity was observed
